According to patent US5242900A (priority 1991, dated 1993):

What was measured:
normal dog = assay type: in vivo
Experimental: (§1) Nine dogs of initially normal body weight were studied in accordance with Institutional Guidelines for animal experiments. Exteriorized, indwelling catheters were placed for intra-portal insulin administration and peripheral venous blood sampling. All were studied initially as normals. Subsequently all were pancreatectomized; five were autografted and the remaining four were treated pharmacologically both with the modified insulins described above in Example 1 and the corresponding unmodified conventional extracted insulins. Small venous blood samples were drawn via the indwelling blood sampling catheter at 30-60 minute intervals for plasma glucose determination in the subcutaneous experiments and at -10,0,3,6,10,20,30,60 minutes in the intravenous experiments. […] All animals were conscious and ambulatory during the studies.
(§2) Plasma glucose was determined using a glucose analyzer (Beckman Instruments, Fullerton, CA). IRI was assayed using porcine insulin standard and ^125 I porcine insulin tracer (Novo Research Institute, Gentofte, Denmark), antiserum and a dextran-coated charcoal separation technique (Albisser et al, Diabetes 35:97-100, 1986). In the studies using porcine phosphorylated insulin, the above assay was performed as for porcine insulin, but using equimolar standards of phosphorylated insulin. Parallel standard curves were obtained. […] All values were expressed as mean ±SEM unless otherwise indicated.

pancreatectomized dogs = assay: Subcutaneous studies in pancreatectomized (diabetic) dogs: plasma glucose; assay type: in vivo
Experimental: as §1
At the conclusion of experimental protocols, it was verified that all nine of the animals were diabetic by extirpating the grafts (from the transplant recipients) or withdrawing insulin therapy (from the pancreatectomized animals).
as §2
Subsequent to pancreatectomy the animals were studied repeatedly, now in the post-absorptive, hyperglycemic state of 14-20 mM, because the conventional insulin depot administered the previous day had become depleted.

## phosphorylated insulin: porcine insulin chemically phosphorylated with POCl3/phosphoric acid in DMF; 3 or 5 negatively charged adducts; about 5-10% unmodified
Normal dog; dog, in vivo
  first pass extraction by the liver compared with insulin: not extracted to the same extent
Normal dog; normal dog, intra-portal, 2-fold larger dose
  hypoglycemic effect: without major hypoglycemic effect
Normal dog; normal dog, intra-portal, at 15 minutes
  drop in blood glucose: 0.2 mM
Normal dog; normal dog, intra-portal, double dosage
  decrease in plasma glucose: about 0.5 mM
Pancreatectomized dogs; dog, in vivo, sc
  early hypoglycemia: never occurred
  lipo-genesis (fat-like deposits) in the areas of repeated subcutaneous injections: palpable fat-like deposits
Pancreatectomized dogs; fasted pancreatectomized dog, starting 14-20 mM, subcutaneous, 30-150 nMol
  time euglycemia maintained: 2 to 6 h
Pancreatectomized dogs; pancreatectomized dog, subcutaneous, 4-fold larger doses
  glucose lowering effect at larger dose: occurred more rapidly and lasted longer
Pancreatectomized dogs; pancreatectomized dog, subcutaneous, approximately 4 nMol/kg
  plasma glucose lowered to: 4.5 to 6.0 mM
Pancreatectomized dogs; pancreatectomized dog, subcutaneous, smaller dosage repeated at 6-8h intervals
  plasma glucose with repeated injections: maintain plasma glucose in the range normal for postabsorptive dogs
Pancreatectomized dogs; pancreatectomized dogs
  body weight regained after loss following pancreatectomy: 1 to 3 kg
